Here are results for six compounds from patent US9062124B2, “GIP-based mixed agonists for treatment of metabolic disorders and obesity” (priority 2008, dated 2015).

“Also recorded” adds a separate entry of the source. Where a SMILES comes first, the peptide text is derived from it. [ ]: non-standard residue; d: D form. Aib = CC(C)(N)C(=O)O

What all share (format): cell-based
The subject of assay [1] is glucagon receptor, GLP-1 receptor or GIP receptor. In words: Agonist profile across receptors assigned from the cAMP reporter assay data. The note with it: assigned from the in vitro EC50 data of Tables 1-4.
Another assay addresses T1, GLP-1 receptor (Homo sapiens, UniProt P43220).
T1 construct: expressed in transfected cells; host or cells: HEK293
In words: cAMP synthesis functional assay (firefly luciferase reporter in HEK293 cells), GLP-1 receptor. (In general: A reporter such as luciferase makes a cellular process visible.)

Another assay concerns the target T2, glucagon receptor (Homo sapiens, UniProt P47871).
T2 construct: expressed in transfected cells; host or cells: HEK293
The assay is described as follows: cAMP synthesis functional assay (firefly luciferase reporter in HEK293 cells), glucagon receptor. The note with it: for EC50: Glucagon Receptor EC50, nM, linear peptides with AIB at position 16 and/or 20.

Another assay deals with T3, GIP receptor (Homo sapiens, UniProt P48546).
T3 construct: expressed in transfected cells; host or cells: HEK293
T3 sequence (P48546 22-466): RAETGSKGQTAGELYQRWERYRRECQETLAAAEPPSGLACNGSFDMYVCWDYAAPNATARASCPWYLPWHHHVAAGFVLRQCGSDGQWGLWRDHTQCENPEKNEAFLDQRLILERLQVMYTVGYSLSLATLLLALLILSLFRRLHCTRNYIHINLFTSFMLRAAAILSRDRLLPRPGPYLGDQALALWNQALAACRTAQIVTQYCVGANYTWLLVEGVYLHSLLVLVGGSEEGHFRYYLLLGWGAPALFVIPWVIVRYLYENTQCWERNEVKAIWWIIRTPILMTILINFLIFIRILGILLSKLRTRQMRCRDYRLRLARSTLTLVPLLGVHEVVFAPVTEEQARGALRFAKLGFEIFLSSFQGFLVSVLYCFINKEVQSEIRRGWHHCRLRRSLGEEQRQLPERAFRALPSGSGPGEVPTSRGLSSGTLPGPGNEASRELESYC
The assay is described as follows: cAMP synthesis functional assay (firefly luciferase reporter in HEK293 cells), GIP receptor.

Where [2] appears, read: GLP-1 Receptor EC50, nM, Table 2.
[3] abbreviates: relative to the standard (Std.) EC50 of the same run.

T2 sequence (P47871 26-477): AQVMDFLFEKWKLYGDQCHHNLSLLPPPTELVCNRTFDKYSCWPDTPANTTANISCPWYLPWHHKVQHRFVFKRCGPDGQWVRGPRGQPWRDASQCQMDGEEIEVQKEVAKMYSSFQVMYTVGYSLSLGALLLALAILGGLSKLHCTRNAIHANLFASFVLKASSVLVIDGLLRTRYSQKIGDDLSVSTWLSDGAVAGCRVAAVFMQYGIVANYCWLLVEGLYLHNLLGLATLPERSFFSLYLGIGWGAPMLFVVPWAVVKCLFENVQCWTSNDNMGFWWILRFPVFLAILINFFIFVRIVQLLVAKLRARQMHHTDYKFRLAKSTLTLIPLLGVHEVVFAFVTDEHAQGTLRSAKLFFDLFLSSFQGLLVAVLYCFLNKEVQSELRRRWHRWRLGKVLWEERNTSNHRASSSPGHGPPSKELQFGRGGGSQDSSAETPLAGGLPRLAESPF
T1 sequence (P43220 24-463, species assumed): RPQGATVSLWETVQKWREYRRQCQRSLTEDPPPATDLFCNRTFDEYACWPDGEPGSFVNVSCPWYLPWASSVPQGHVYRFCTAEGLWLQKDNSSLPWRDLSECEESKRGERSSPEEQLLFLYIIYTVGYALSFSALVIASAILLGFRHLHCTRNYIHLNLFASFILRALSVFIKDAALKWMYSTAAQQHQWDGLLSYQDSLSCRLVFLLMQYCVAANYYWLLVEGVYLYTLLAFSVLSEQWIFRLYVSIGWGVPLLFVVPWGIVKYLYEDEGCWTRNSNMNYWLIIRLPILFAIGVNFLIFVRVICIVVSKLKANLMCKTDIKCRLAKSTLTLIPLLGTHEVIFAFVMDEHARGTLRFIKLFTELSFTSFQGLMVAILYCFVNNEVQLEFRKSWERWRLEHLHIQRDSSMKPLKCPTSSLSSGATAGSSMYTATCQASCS

For the compound `CC[C@H](C)[C@H](NC(=O)[C@H](CO)NC(=O)[C@H](Cc1ccc(O)cc1)NC(=O)[C@H](CC(=O)O)NC(=O)[C@H](CO)NC(=O)[C@@H](NC(=O)[C@H](Cc1ccccc1)NC(=O)[C@@H](NC(=O)CNC(=O)[C@H](CCC(N)=O)NC(=O)C(C)(C)NC(=O)[C@@H](N)Cc1ccc(O)cc1)[C@@H](C)O)[C@@H](C)O)C(=O)N[C@@H](Cc1ccc(O)cc1)C(=O)N[C@@H](CC(C)C)C(=O)N[C@@H](CC(=O)O)C(=O)NC(C)(C)C(=O)N[C@@H](CCC(N)=O)C(=O)N[C@@H](C)C(=O)N[C@@H](C)C(=O)N[C@@H](CCC(N)=O)C(=O)N[C@@H](CCC(=O)O)C(=O)N[C@@H](Cc1ccccc1)C(=O)N[C@H](C(=O)N[C@@H](CC(N)=O)C(=O)N[C@@H](Cc1c[nH]c2ccccc12)C(=O)N[C@@H](CC(C)C)C(=O)N[C@@H](CC(C)C)C(=O)N[C@@H](C)C(=O)NCC(=O)NCC(=O)N1CCC[C@H]1C(=O)N[C@@H](CO)C(=O)N[C@@H](CO)C(=O)NCC(=O)N[C@@H](C)C(=O)N1CCC[C@H]1C(=O)N1CCC[C@H]1C(=O)N1CCC[C@H]1C(=O)N[C@@H](CO)C(=O)N[C@@H](CS)C(N)=O)C(C)C` [mt-242] (H-Y[Aib]QGTFTSDYSIYLD[Aib]QAAQEFVNWLLAGGPSSGAPPPSC-NH2; N-terminus assumed), the “receptor activity profile (glucagon / GLP-1 / GIP agonism)” value in assay [1] is on record as “exhibited activities of glucagon/GLP-1/GIP triagonists”. Also, the EC50 on GLP-1 receptor (setting [2]) worked out at 0.102 nM; at glucagon receptor (Table 2) it was 1.11 nM; at GIP receptor (GIP Receptor EC50, nM, Table 2), 0.078 nM. The “GLP-1 Receptor relative activity” value at GLP-1 receptor (Table 2) turned out to be 29.41%. Also, the “Glucagon Receptor relative activity” value at glucagon receptor (Table 2) stood at 9.58%. The “GIP Receptor relative activity” value at GIP receptor (Table 2) was found to be 14.10%.

On to `CC[C@H](C)[C@H](NC(=O)[C@H](CO)NC(=O)[C@H](Cc1ccc(O)cc1)NC(=O)[C@H](CC(=O)O)NC(=O)[C@H](CO)NC(=O)[C@@H](NC(=O)[C@H](Cc1ccccc1)NC(=O)[C@@H](NC(=O)CNC(=O)[C@H](CCC(N)=O)NC(=O)C(C)(C)NC(=O)[C@@H](N)Cc1ccc(O)cc1)[C@@H](C)O)[C@@H](C)O)C(=O)N[C@@H](Cc1ccc(O)cc1)C(=O)N[C@@H](CC(C)C)C(=O)N[C@@H](CC(=O)O)C(=O)NC(C)(C)C(=O)N[C@@H](CCC(N)=O)C(=O)N[C@@H](C)C(=O)N[C@@H](C)C(=O)NC(C)(C)C(=O)N[C@@H](CCC(=O)O)C(=O)N[C@@H](Cc1ccccc1)C(=O)N[C@H](C(=O)N[C@@H](CC(N)=O)C(=O)N[C@@H](Cc1c[nH]c2ccccc12)C(=O)N[C@@H](CC(C)C)C(=O)N[C@@H](CC(C)C)C(=O)N[C@@H](C)C(=O)NCC(=O)NCC(=O)N1CCC[C@H]1C(=O)N[C@@H](CO)C(=O)N[C@@H](CO)C(=O)NCC(=O)N[C@@H](C)C(=O)N1CCC[C@H]1C(=O)N1CCC[C@H]1C(=O)N1CCC[C@H]1C(=O)N[C@@H](CO)C(=O)N[C@@H](CS)C(N)=O)C(C)C` [mt-250] (H-Y[Aib]QGTFTSDYSIYLD[Aib]QAA[Aib]EFVNWLLAGGPSSGAPPPSC-NH2; N-terminus assumed), for which the “receptor activity profile (glucagon / GLP-1 / GIP agonism)” value in assay [1] is “exhibited activities of glucagon/GLP-1/GIP triagonists”. Also, at GLP-1 receptor (Table 2), the “GLP-1 Receptor relative activity” value is 63.64%. The “Glucagon Receptor relative activity” value on glucagon receptor (Table 2) came out at 6.30%. The “GIP Receptor relative activity” value on GIP receptor (Table 2) came out at 30.65%.

Regarding `CC[C@H](C)[C@H](NC(=O)[C@H](CO)NC(=O)[C@H](Cc1ccc(O)cc1)NC(=O)[C@H](CC(=O)O)NC(=O)[C@H](CO)NC(=O)[C@@H](NC(=O)[C@H](Cc1ccccc1)NC(=O)[C@@H](NC(=O)CNC(=O)[C@H](CCC(N)=O)NC(=O)C(C)(C)NC(=O)[C@@H](N)Cc1ccc(O)cc1)[C@@H](C)O)[C@@H](C)O)C(=O)N[C@@H](Cc1ccc(O)cc1)C(=O)N[C@@H](CC(C)C)C(=O)N[C@@H](CC(=O)O)C(=O)N[C@@H](CCC(=O)O)C(=O)N[C@@H](CCC(N)=O)C(=O)N[C@@H](C)C(=O)N[C@@H](C)C(=O)NC(C)(C)C(=O)N[C@@H](CCC(=O)O)C(=O)N[C@@H](Cc1ccccc1)C(=O)N[C@H](C(=O)N[C@@H](CC(N)=O)C(=O)N[C@@H](Cc1c[nH]c2ccccc12)C(=O)N[C@@H](CC(C)C)C(=O)N[C@@H](CC(C)C)C(=O)N[C@@H](C)C(=O)NCC(=O)NCC(=O)N1CCC[C@H]1C(=O)N[C@@H](CO)C(=O)N[C@@H](CO)C(=O)NCC(=O)N[C@@H](C)C(=O)N1CCC[C@H]1C(=O)N1CCC[C@H]1C(=O)N1CCC[C@H]1C(=O)N[C@@H](CO)C(=O)N[C@@H](CS)C(N)=O)C(C)C` [mt-251] (H-Y[Aib]QGTFTSDYSIYLDEQAA[Aib]EFVNWLLAGGPSSGAPPPSC-NH2; N-terminus assumed), in assay [1], the “receptor activity profile (glucagon / GLP-1 / GIP agonism)” value was “exhibited activity of a GLP-1/GIP co-agonist”. In addition, on GLP-1 receptor (Table 2), the “GLP-1 Receptor relative activity” value came to 140.00%. The “Glucagon Receptor relative activity” value at glucagon receptor (Table 2) was 1.52%. In addition, the “GIP Receptor relative activity” value on GIP receptor (Table 2) was found to be 57.58%.

Regarding `CC[C@H](C)[C@H](NC(=O)[C@H](CO)NC(=O)[C@H](Cc1ccc(O)cc1)NC(=O)[C@H](CC(=O)O)NC(=O)[C@H](CO)NC(=O)[C@@H](NC(=O)[C@H](Cc1ccccc1)NC(=O)[C@@H](NC(=O)CNC(=O)[C@H](CCC(N)=O)NC(=O)C(C)(C)NC(=O)[C@@H](N)Cc1ccc(O)cc1)[C@@H](C)O)[C@@H](C)O)C(=O)N[C@@H](Cc1ccc(O)cc1)C(=O)N[C@@H](CC(C)C)C(=O)N[C@@H](CC(=O)O)C(=O)N[C@@H](CCCCN)C(=O)N[C@@H](CCC(N)=O)C(=O)N[C@@H](C)C(=O)N[C@@H](C)C(=O)NC(C)(C)C(=O)N[C@@H](CCC(=O)O)C(=O)N[C@@H](Cc1ccccc1)C(=O)N[C@H](C(=O)N[C@@H](CC(N)=O)C(=O)N[C@@H](Cc1c[nH]c2ccccc12)C(=O)N[C@@H](CC(C)C)C(=O)N[C@@H](CC(C)C)C(=O)N[C@@H](C)C(=O)NCC(=O)NCC(=O)N1CCC[C@H]1C(=O)N[C@@H](CO)C(=O)N[C@@H](CO)C(=O)NCC(=O)N[C@@H](C)C(=O)N1CCC[C@H]1C(=O)N1CCC[C@H]1C(=O)N1CCC[C@H]1C(=O)N[C@@H](CO)C(=O)N[C@@H](CS)C(N)=O)C(C)C` [mt-252], the “receptor activity profile (glucagon / GLP-1 / GIP agonism)” value in assay [1] is “exhibited activities of glucagon/GLP-1/GIP triagonists; also recorded: exhibited activity at the GIP, GLP-1, and glucagon receptors”. In addition, the EC50 at GLP-1 receptor (setting [2]) turned out to be 0.018 nM; at glucagon receptor (Table 2), 0.319 nM; on GIP receptor (GIP Receptor EC50, nM, Table 2), 0.013 nM. Moreover, the “GLP-1 Receptor relative activity” value on GLP-1 receptor (Table 2) and on GLP-1 receptor (setting [3]) was 116.67% each time. Also, the “Glucagon Receptor relative activity” value at glucagon receptor (Table 2) and on glucagon receptor (setting [3]) was 13.17% throughout. In addition, the “GIP Receptor relative activity” value on GIP receptor (Table 2) and on GIP receptor (setting [3]) was 146.15% throughout.

Consider `CC[C@H](C)[C@H](NC(=O)[C@H](CO)NC(=O)[C@H](Cc1ccc(O)cc1)NC(=O)[C@H](CC(=O)O)NC(=O)[C@H](CO)NC(=O)[C@@H](NC(=O)[C@H](Cc1ccccc1)NC(=O)[C@@H](NC(=O)CNC(=O)[C@H](CCC(N)=O)NC(=O)C(C)(C)NC(=O)[C@@H](N)Cc1ccc(O)cc1)[C@@H](C)O)[C@@H](C)O)C(=O)N[C@@H](Cc1ccc(O)cc1)C(=O)N[C@@H](CC(C)C)C(=O)N[C@@H](CC(=O)O)C(=O)N[C@@H](CCCCN)C(=O)N[C@@H](CCC(N)=O)C(=O)N[C@@H](C)C(=O)N[C@@H](C)C(=O)NC(C)(C)C(=O)N[C@@H](CCC(=O)O)C(=O)N[C@@H](Cc1ccccc1)C(=O)N[C@H](C(=O)N[C@@H](CS)C(=O)N[C@@H](Cc1c[nH]c2ccccc12)C(=O)N[C@@H](CC(C)C)C(=O)N[C@@H](CC(C)C)C(=O)N[C@@H](C)C(=O)NCC(N)=O)C(C)C` [mt-257] (H-Y[Aib]QGTFTSDYSIYLDKQAA[Aib]EFVCWLLAG-NH2; N-terminus assumed), for which the “receptor activity profile (glucagon / GLP-1 / GIP agonism)” value in assay [1] was “exhibited activity at the GIP, GLP-1, and glucagon receptors”. Moreover, the half-maximal effective concentration (EC50) amounted to 0.0303 nM on GLP-1 receptor (GLP-1 Receptor EC50, cAMP luciferase reporter assay as in Example 16) and 0.0232 nM at GIP receptor (GIP Receptor EC50, cAMP luciferase reporter assay as in Example 16). Also, at GLP-1 receptor (setting [3]), the “GLP-1 Receptor relative activity” value came to 39.27%. Further, the “Glucagon Receptor relative activity” value at glucagon receptor (setting [3]) is 32.53%. Besides, the “GIP Receptor relative activity” value at GIP receptor (setting [3]) was found to be 41.38%.

For the compound `CC[C@H](C)[C@H](NC(=O)[C@H](CO)NC(=O)[C@H](Cc1ccc(O)cc1)NC(=O)[C@H](CC(=O)O)NC(=O)[C@H](CO)NC(=O)[C@@H](NC(=O)[C@H](Cc1ccccc1)NC(=O)[C@@H](NC(=O)CNC(=O)[C@H](CCC(N)=O)NC(=O)C(C)(C)NC(=O)[C@@H](N)Cc1ccc(O)cc1)[C@@H](C)O)[C@@H](C)O)C(=O)N[C@@H](Cc1ccc(O)cc1)C(=O)N[C@@H](CC(C)C)C(=O)N[C@@H](CC(=O)O)C(=O)N[C@@H](CCC(=O)O)C(=O)N[C@@H](CCC(N)=O)C(=O)N[C@@H](C)C(=O)N[C@@H](C)C(=O)NC(C)(C)C(=O)N[C@@H](CCC(=O)O)C(=O)N[C@@H](Cc1ccccc1)C(=O)N[C@H](C(=O)N[C@@H](CS)C(=O)N[C@@H](Cc1c[nH]c2ccccc12)C(=O)N[C@@H](CC(C)C)C(=O)N[C@@H](CC(C)C)C(=O)N[C@@H](C)C(=O)NCC(N)=O)C(C)C` [mt-258] (H-Y[Aib]QGTFTSDYSIYLDEQAA[Aib]EFVCWLLAG-NH2; N-terminus assumed), the “receptor activity profile (glucagon / GLP-1 / GIP agonism)” value in assay [1] is reported as “exhibited activities of glucagon/GLP-1/GIP triagonists”. On GLP-1 receptor (Table 2), the “GLP-1 Receptor relative activity” value stood at 58.91%. For the same compound, the “Glucagon Receptor relative activity” value at glucagon receptor (Table 2) is reported as 14.08%. The “GIP Receptor relative activity” value on GIP receptor (Table 2) is reported as 16.84%.

Usually EC50 stands for the concentration at which the effect is half-maximal. A low value points to a more potent agent.
